Assay results reported in patent publication US12697326B2, “Methods of treating hepatic encephalopathy” (SALIX PHARMACEUTICALS, INC., priority 2008, dated 2026).

Assays:
patients with HE [1] = settings: 6-month study; rifaximin 1200 mg/day, neomycin 3 g/day; 14 days on, 14 days off per month; cited from earlier work
[2] = human, in vivo
subjects with HE = test: Treatment-emergent adverse events, second study; format: in vivo, human
Text: At the time of this interim analysis, TEAEs were reported in 230 subjects (86.5%). The most common TEAEs (e.g., in ≥10% of total subjects) experienced by subjects were the following: peripheral edema (15.8%); urinary tract infection and nausea (12.8% each); and abdominal pain and ascites (10.5% each).
Treatment-emergent SAEs were experienced by 47.4% of subjects.

[3] = system: HE-caused hospitalization in subjects with HE; test: HE-caused hospitalization, first study; format: in vivo, human
Text: FIG. 5 illustrates time to first HE-caused hospitalizations by treatment group in the first study. […] Note for FIG. 10, the survival distribution estimate on y-axis represents the proportion of subjects without HE-caused hospitalizations. Dashed line represents rifaximin group and solid line represents placebo group. Open circles and open triangles represent censored subjects. Subjects who discontinued prior to hospitalization were censored at the time of discontinuation.

[4] = system: blood ammonia concentration in subjects with HE; test: Blood (venous) ammonia concentration, change from baseline, first study; format: in vivo, human; settings: ITT, change from baseline to end of treatment
Protocol: Venous blood samples (10 mL) were collected and ammonia concentrations were obtained by methods known in the art.
Mean values and mean changes from baseline in blood ammonia concentration and critical flicker frequency values were collected. Analyses of blood ammonia concentrations and critical flicker frequency values were based upon quantitative values (not qualitative grades). Treatment differences for mean change from baseline in these parameters was estimated using a mixed effects model with fixed effects for time and baseline value.
Table 22 summarizes changes from baseline to end of treatment in venous ammonia level by treatment group in the first study.

patients with HE [5] = test: Retrospective chart review of 145 patients with HE, lactulose then rifaximin; format: in vivo, human
Text: Total number of hospitalizations, duration of hospitalizations, HE endpoints, and cost of therapy were compared between the 2 treatment regimens.

[6] = system: asterixis grade in subjects with HE; test: Time to any increase from baseline in asterixis grade, first study; format: in vivo, human; settings: for Probability of no increase in asterixis grade: Kaplan-Meier estimate, ITT; for Probability of no increase in asterixis grade / Cummulative number of events (increase in asterixis grade) / Number of events (increase in asterixis grade): Rifaximin N = 140; for Cummulative number of events (increase in asterixis grade) / Number of events (increase in asterixis grade): ITT population
Protocol: Asterixis (flapping tremor) was determined with the subject holding both arms and forearms extended with wrists dorsiflexed and fingers open for ≥30 seconds. Asterixis was measured on a continuum of 5 grades, e.g., grades 0 and 4=no abnormal movement vs. almost continuous flapping motions, respectively as shown below: • Grade 0=No tremors; • Grade 1=Rare flapping motions; • Grade 2=Occasional, irregular flaps; • Grade 3=Frequent flaps; and • Grade 4=Almost continuous flapping motions.
Efficacy in regard to asterixis grade was measured as time to any increase from baseline in asterixis grade.
FIG. 12 illustrates time to any increase from baseline in asterixis grade by treatment group in the ITT population in the first study. Table 21 presents estimates of the proportions of subjects who had any increase in asterixis grade over the course of the Treatment Period and results of statistical analyses. Subjects who discontinued prior to experiencing an increase in asterixis grade and prior to completion of the 6-month treatment period were censored at the time of discontinuation.

[7] = system: Conn score in subjects with HE; test: Level of change from baseline in Conn score by treatment group, first study; format: in vivo, human; settings: 550 mg BID, Baseline to EOT
Text: The scale used in the Conn scoring system is provided below. • Grade 0=No personality or behavioral abnormality detected • Grade 1=Trivial lack of awareness, euphoria or anxiety; shortened attention span; impairment of addition or subtraction • Grade 2=Lethargy; disorientation for time; obvious personality change; inappropriate behavior • Grade 3=Somnolence to semi-stupor, responsive to stimuli; confused; gross disorientation; bizarre behavior • Grade 4=Coma; unable to test mental state
Change in mental status was measured by the Conn score (also known as the West Haven score). The Conn score has been widely used as a measure of mental state in HE studies and is based on the criteria of Parsons-Smith as modified by Conn. The scale used in the Conn scoring system is described above.

[8] = Treatment interval 0 to <28 days
[9] = Treatment interval 28 to <56 days
[10] = Treatment interval 56 to <84 days
[11] = Treatment interval 84 to <140 days
[12] = Treatment interval 140 to <168 days
[13] = any increase from baseline in asterixis grade, 550 mg BID, N = 140, Days >=168
[14] = any increase from baseline in asterixis grade; 550 mg BID; N = 140; Days [0-28)
[15] = any increase from baseline in asterixis grade; 550 mg BID; N = 140; Days [28-56)
[16] = any increase from baseline in asterixis grade; 550 mg BID; N = 140; Days [56-84)
[17] = any increase from baseline in asterixis grade; 550 mg BID; N = 140; Days [84-140)
[18] = any increase from baseline in asterixis grade; 550 mg BID; N = 140; Days [140-168)

## CO[C@H]1/C=C/O[C@@]2(C)Oc3c(C)c(O)c4c(O)c(c5c(nc6cc(C)ccn65)c4c3C2=O)NC(=O)/C(C)=C\C=C\[C@H](C)[C@H](O)[C@@H](C)[C@@H](O)[C@@H](C)[C@H](OC(C)=O)[C@@H]1C [Rifaximin]
Patients with HE [1]
  efficacy in patients with HE, rifaximin versus neomycin: comparable efficacy
[2]
  highest anticipated free plasma exposure: 0.03 µM
Subjects with HE
  subjects experiencing at least 1 TEAE judged to be severe: 40.2%
  subjects with treatment-emergent SAEs: 47.4%
Subjects with HE; 57 subjects
  subjects with HE counted for the safety analyses: 21.4%
Subjects with HE; continuing rifaximin group
  incidence of TEAEs considered related to study drug: 7.1%
Subjects with HE; interim analysis
  TEAE abdominal pain, subjects: 10.5%
  TEAE ascites, subjects: 10.5%
  TEAE nausea, subjects: 12.8%
  TEAE peripheral edema, subjects: 15.8%
  TEAE urinary tract infection, subjects: 12.8%
Subjects with HE; interim analysis, 230 subjects
  subjects with TEAEs: 86.5%
Subjects with HE; new rifaximin group
  incidence of TEAEs considered related to study drug: 7.7%
[3]; 6-month treatment period
  reduction in risk of HE-caused hospitalization compared with placebo: 56%
[3]; rifaximin group
  HE-caused hospitalization rate: 0.30 events/PEY
  subjects with HE-caused hospitalizations (of 140): 15
[4]
  Mean (SD) change in ammonia level: −5.7 (46.77) μg/dL
Patients with HE [5]
  patients with Conn scores of 3 or 4 at end of treatment period: 6%
Patients with HE [5]; lactulose 30 mL twice daily then rifaximin 400 mg 3 times/day
  hospitalizations: 0.5
[6]; [8]
  Probability of no increase in asterixis grade: 1.0000
  Cummulative number of events (increase in asterixis grade): 13
[6]; [9]
  Probability of no increase in asterixis grade: 0.9048
  Cummulative number of events (increase in asterixis grade): 20
  Number of events (increase in asterixis grade): 7
[6]; [10]
  Probability of no increase in asterixis grade: 0.8499
  Cummulative number of events (increase in asterixis grade): 27
  Number of events (increase in asterixis grade): 7
[6]; [11]
  Probability of no increase in asterixis grade: 0.7910
  Cummulative number of events (increase in asterixis grade): 30
  Number of events (increase in asterixis grade): 3
[6]; [12]
  Probability of no increase in asterixis grade: 0.7637
  Cummulative number of events (increase in asterixis grade): 31
  Number of events (increase in asterixis grade): 1
[6]; Treatment interval ≥168 days
  Probability of no increase in asterixis grade: 0.7534
  Cummulative number of events (increase in asterixis grade): 32
  Number of events (increase in asterixis grade): 1
[6]; [13]
  Cumulative Occurrences of Events: 32
  Occurrences of Events: 1
[6]; [14]
  Cumulative Occurrences of Events: 13
  Occurrences of Events: 13
[6]; [15]
  Cumulative Occurrences of Events: 20
  Occurrences of Events: 7
[6]; [16]
  Cumulative Occurrences of Events: 27
  Occurrences of Events: 7
[6]; [17]
  Cumulative Occurrences of Events: 30
  Occurrences of Events: 3
[6]; [18]
  Cumulative Occurrences of Events: 31
  Occurrences of Events: 1
[6]; first study, rifaximin group
  subjects with increases in asterixis grade (of 140): 32
[6]; in vivo
  time to first increase in Asterixis grade vs placebo (FIG. 5, Kaplan Meier): increased time to the first increase in Asterixis grade
[7]
  Change from baseline in Conn score, Max: 2
  Change from baseline in Conn score, Mean: −0.1
  Change from baseline in Conn score, Median: 0.0
  Change from baseline in Conn score, Min: −1
[7]; n = 139
  Number of subjects with change from baseline in Conn score of 0: 101
  Number of subjects with change from baseline in Conn score of 1: 10
  Number of subjects with change from baseline in Conn score of 2: 2
  Number of subjects with change from baseline in Conn score of 3: 0
  Number of subjects with change from baseline in Conn score of −1: 26
  Percent of subjects with change from baseline in Conn score of 0: 72.7%
  Percent of subjects with change from baseline in Conn score of 1: 7.2%
  Percent of subjects with change from baseline in Conn score of 2: 1.4%
